Data as given in ChEMBL document CHEMBL5729210, “Benzodiazepine derivatives as RSV inhibitors” (2022).
pEC50: −log10 of the molar value. “And” between values parts separate entries of the source, which are not always exact repeats. Equal values may be shown once.

Assay: RSV-A Assay: The description is Japanese.

| Structure (SMILES) | EC50 | pEC50 |
| --- | --- | --- |
| Cc1nsc(N2CCOCC2)c1-c1nnc(N[C@H]2N=C(c3ccccc3)c3ccccc3NC2=O)o1 | in the range around 600 nM | – |
| N#Cc1ccn2ncc(-c3nnc(N[C@H]4N=C(c5ccccc5)c5ccccc5NC4=O)o3)c2c1 | – | < 6.10 |
| CCOC(=O)c1nc(C2(O)CCC2)sc1N1CCOCC1 | – | > 6.40 |
| O=C1Nc2ccccc2C(c2ccccc2)=NC1Nc1nnc(-c2cn(-c3ccc(F)cn3)nc2N2CCOCC2)o1 (stereo not given) | – | > 6.40 |
| CCOC(=O)c1csc(C(F)(F)C(F)(F)F)n1 | – | > 6.40 |
| COCCNc1sccc1-c1nnc(N[C@H]2N=C(c3ccccc3)c3ccccc3NC2=O)o1 | – | < 6.10 |
| CO[C@@H]1COC[C@H]1Nc1cc(C(F)(F)F)cnc1-c1nnc(N[C@H]2N=C(c3ccccc3)c3ccccc3NC2=O)o1 | – | > 6.40 |
| O=C1Nc2ccccc2C(c2ccccc2)=N[C@@H]1Nc1nnc(-c2ncc(C(F)(F)F)cc2N[C@@H]2CCOC2)o1 | – | > 6.40 |
| O=C1Nc2ccccc2C(c2ccccc2)=NC1Nc1cc(N2CCOCC2)cnn1 (stereo not given) | – | < 6.10 |
| COCCCc1sc(C)nc1-c1nnc(N[C@H]2N=C(c3ccccc3)c3ccccc3NC2=O)o1 | – | < 6.10 |
| O=C1Nc2ccccc2C(c2ccccc2)=N[C@@H]1Nc1nnc(-c2ncc(C(F)(F)F)cc2N[C@H]2CCOC2)o1 | – | < 6.10 |
| N#Cc1ccc2nccc(-c3nnc(N[C@H]4N=C(c5ccccc5)c5ccccc5NC4=O)o3)c2c1 | – | < 6.10 |
| CC(C)(c1nc(-c2nnc(N[C@H]3N=C(c4ccccc4)c4ccccc4NC3=O)o2)c(N2CCOCC2)s1)N1CCOCC1 | – | > 6.40 |
| COC[C@H]1C[C@@H]1c1cc(C(F)(F)F)cnc1-c1nnc(N[C@@H]2N=C(c3ccccc3)c3ccccc3NC2=O)o1 | – | < 6.10 |
| O=C1Nc2ccccc2C(c2ccccc2)=N[C@@H]1Nc1nnc(-c2nc(C(F)(F)F)sc2N[C@@H]2CCOC2)o1 | – | > 6.40 |
| CCOC(=O)c1cnn2ccc(C)cc12 | – | < 6.10 |
| COC[C@H]1C[C@@H]1c1cc(C(F)(F)F)cnc1-c1nnc(N[C@H]2N=C(c3ccccc3)c3ccccc3NC2=O)o1 | – | < 6.10 |
| O=C1Nc2ccccc2C(c2ccccc2)=N[C@@H]1Nc1nnc(-c2ncc(C(F)(F)F)cc2N2CCOC(C(F)(F)F)C2)o1 (stereo not given in full) | – | > 6.40 |
| O=C1Nc2ccccc2C(c2ccccc2)=N[C@@H]1Nc1nnc(-c2cn(-c3ccc(C(F)(F)F)cn3)nc2N2CCOCC2)o1 | in the range around 600 nM | – |
| O=C1Nc2ccccc2C(c2ccccc2)=N[C@@H]1Nc1nnc(-c2oc3cc(F)ccc3c2N2CCOCC2)o1 | in the range around 600 nM | – |
| CCOC(=O)c1nc(C(F)(F)F)sc1C1=CCOCC1 | – | > 6.40 |
| O=C1OCCc2cc(C(F)(F)F)cnc21 | – | < 6.10 |
| COC[C@@H]1C[C@H]1c1cc(C(F)(F)F)cnc1-c1nnc(N[C@H]2N=C(c3ccccc3)c3ccccc3NC2=O)o1 | – | < 6.10 |
| COC[C@@H](C)Nc1sc(C(F)(F)F)nc1-c1nnc(N[C@H]2N=C(c3ccccc3)c3ccccc3NC2=O)o1 | in the range around 600 nM | – |
| CCOC(=O)c1ncc(C(F)F)cc1N1CCOCC1 | – | > 6.40 |

| Structure (SMILES) | EC50 | pEC50 |
| --- | --- | --- |
| O=C1Nc2ccccc2C(c2ccccc2)=N[C@H]1Nc1nnc(-c2nc(C(F)(F)F)sc2N2CCO[C@H]3C[C@H]32)o1 | – | < 6.10 |
| COC[C@@H]1CCCN1c1sc(C(F)(F)F)nc1-c1nnc(N[C@H]2N=C(c3ccccc3)c3ccccc3NC2=O)o1 | – | < 6.10 |
| O=C1Nc2ccccc2C(c2ccccc2)=N[C@@H]1Nc1nnc(-c2ncc(C(F)(F)F)cc2N2CCOC3CC32)o1 (stereo not given in full) | – | > 6.40 |
| O=C1Nc2ccccc2C(c2ccccc2)=N[C@H]1Nc1nnc(-c2nc(C(F)(F)F)sc2N2CCO[C@@H]3C[C@@H]32)o1 | – | < 6.10 |
| O=C1Nc2ccccc2C(c2ccccc2)=N[C@@H]1Nc1nnc(-c2nc(C3(C(F)(F)F)CCC3)sc2N2CCOCC2)o1 | – | > 6.40 |
| O=C1Nc2ccccc2C(c2ccccc2)=N[C@@H]1Nc1nnc(-c2cn(CC3CC3)nc2N2CCOCC2)o1 | < 400 nM and in the range around 600 nM | – |
| O=C1Nc2ccccc2C(c2ccccc2)=N[C@@H]1Nc1nnc(-c2nc(C(F)(F)F)sc2NCC2COC2)o1 | in the range around 600 nM | – |
| O=C1Nc2ccccc2C(c2ccccc2)=N[C@@H]1Nc1nnc(-c2ccsc2N2CCOCC2)o1 | – | > 6.40 |
| O=C1Nc2ccccc2C(c2ccccc2)=N[C@@H]1Nc1nnc(-c2ncc(C(F)(F)F)cc2NC2COC2)o1 | – | > 6.40 |
| O=C1Nc2ccccc2C(c2ccccc2)=N[C@@H]1Nc1nnc(-c2cn(CC(F)(F)F)nc2N2CCOCC2)o1 | – | < 6.10 |
| O=C1Nc2ccccc2C(c2ccccc2)=N[C@@H]1Nc1nnc(-c2cn(-c3ccc(C(F)(F)F)nc3)nc2N2CCOCC2)o1 | < 400 nM and in the range around 600 nM | – |
| O=C1Nc2ccccc2C(c2ccccc2)=N[C@@H]1Nc1nnc(-c2nc(C(F)(F)F)sc2N2CCO[C@H]3C[C@H]32)o1 | – | > 6.40 |
| O=C1Nc2ccccc2C(c2ccccc2)=N[C@@H]1Nc1cc(-c2ccccc2)cnn1 | – | < 6.10 |
| CCOC(=O)c1cnn2c1N(CCOC)CCC2 | in the range around 600 nM | – |
| O=C1Nc2ccccc2C(c2ccccc2)=N[C@@H]1Nc1nnc(-c2oc3cccc(F)c3c2N2CCOCC2)o1 | – | > 6.40 |
| COC[C@@H]1C[C@H]1c1cc(C(F)(F)F)cnc1-c1nnc(N[C@@H]2N=C(c3ccccc3)c3ccccc3NC2=O)o1 | – | < 6.10 |
| COC[C@H]1CCCN1c1sc(C(F)(F)F)nc1-c1nnc(N[C@H]2N=C(c3ccccc3)c3ccccc3NC2=O)o1 | – | < 6.10 |
| CO[C@@H](C)CNc1sc(C(F)(F)F)nc1-c1nnc(N[C@H]2N=C(c3ccccc3)c3ccccc3NC2=O)o1 | – | > 6.40 |
| O=C1Nc2ccccc2C(c2ccccc2)=N[C@@H]1Nc1nnc(-c2nc(C(F)(F)F)sc2N2CCO[C@@H]3C[C@@H]32)o1 | – | < 6.10 |
| CC(C)(O)c1nc(-c2nnc(N[C@H]3N=C(c4ccccc4)c4ccccc4NC3=O)o2)c(N2CCOCC2)s1 | – | > 6.40 |
| COCCNc1sc(C(F)(F)F)nc1-c1nnc(N[C@H]2N=C(c3ccccc3)c3ccccc3NC2=O)o1 | – | > 6.40 |
| CC1(c2nc(-c3nnc(N[C@H]4N=C(c5ccccc5)c5ccccc5NC4=O)o3)c(N3CCOCC3)s2)CCC1 | – | > 6.40 |
| COC1C2CNCC21 (stereo not given) | – | < 6.10 |
| O=C1Nc2ccccc2C(c2ccccc2)=N[C@@H]1Nc1nnc(-c2ncc(C(F)(F)F)cc2N2CCOc3ccccc32)o1 | – | < 6.10 |
| O=C1Nc2ccccc2C(c2ccccc2)=N[C@@H]1Nc1nnc(-c2ncc(C(F)(F)F)cc2N2CCOCC2)o1 [ZELICAPAVIR] | < 400 nM (2×) and > 800 nM | – |
